# Measured values as given in patent US20240018136A1, “CDK Inhibitors And Their Use As Pharmaceuticals” (Prelude Therapeutics, Incorporated, priority 2022, published 2024).
# Columns and labels:
# CDK4/Cyclin D1 = biological target: T1, CDK4/Cyclin D1 (Homo sapiens, UniProt P11802); experiment: CDK4/CyclinD1 enzymatic activity assay (TR-FRET); type: biochemical; conditions: ATP 2 mM final, read-out: CDK4_D1 IC50
# T1 construct: purchased ProQinase; host or cells: insect cell
# Method in brief: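 Insect-cell-expressed CDK4/Cyclin D1 (1 nM) phosphorylated ULight-4E-BP1 peptide (100 nM) at 2 mM ATP in HEPES pH 7.4 buffer after 20 min compound preincubation. Reaction started with 10 mM MgCl2, ran 45 min at 37 °C, then EDTA quench and Eu-anti-phospho-4E-BP1 TR-FRET detection. IC50 from 9-point 3-fold dilutions, 4-parameter fit.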
# OVCAR3 p-RB = experiment: pRB ICW assay in OVCAR3 cells; type: cell-based; conditions: Homo sapiens, OVCAR-3, incubated with compound for 2 hours
# Method in brief: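 OVCAR3 cells were treated 2 h at 37 °C with a 9-point half-log compound series, in duplicate, with 10 μM reference compound as maximum inhibition. Cells were then fixed, permeabilized and stained with anti-phospho-RB plus DRAQ5. In-cell western intensities were read at 700/800 nm on Odyssey CLx.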
# CDK2/Cyclin E2 = CDK2/Cyclin E2 (Homo sapiens, UniProt P24941); experiment: CDK2/CyclinE2 enzymatic activity assay (TR-FRET); type: biochemical; conditions: ATP 1 mM final, read-out: CDK2_E1 IC50
# Method in brief: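 Insect-cell-expressed CDK2/Cyclin E2 (1 nM), ULight-4E-BP1 (50 nM) and ATP (1 mM) in HEPES pH 7.4 buffer were preincubated 20 min at RT with compound (9-dose, 3-fold), started with 10 mM MgCl2 and run 45 min at 37 °C. EDTA/Eu-anti-P-4E-BP1 stop, 60 min TR-FRET detection; IC50 from 4-parameter Hill fit.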
# T1 sequence (P11802 whole entry): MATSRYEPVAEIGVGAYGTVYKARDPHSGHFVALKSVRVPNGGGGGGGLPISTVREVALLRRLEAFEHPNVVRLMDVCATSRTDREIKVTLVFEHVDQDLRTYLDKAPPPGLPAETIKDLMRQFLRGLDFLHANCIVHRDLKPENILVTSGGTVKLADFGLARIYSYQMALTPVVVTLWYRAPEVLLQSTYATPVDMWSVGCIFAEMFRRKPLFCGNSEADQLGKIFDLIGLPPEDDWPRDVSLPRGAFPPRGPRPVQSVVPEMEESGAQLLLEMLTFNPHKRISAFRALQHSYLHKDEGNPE
# T1 sequence (P24385 whole entry partner): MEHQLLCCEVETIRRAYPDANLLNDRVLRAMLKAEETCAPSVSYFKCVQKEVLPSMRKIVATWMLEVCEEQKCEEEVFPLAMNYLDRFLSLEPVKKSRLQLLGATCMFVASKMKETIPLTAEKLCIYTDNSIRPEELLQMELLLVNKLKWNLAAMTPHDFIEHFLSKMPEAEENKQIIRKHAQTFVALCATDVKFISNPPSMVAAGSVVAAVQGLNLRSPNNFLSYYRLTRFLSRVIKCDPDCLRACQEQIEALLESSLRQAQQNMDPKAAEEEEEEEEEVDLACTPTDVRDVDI
IC50 (CDK4/Cyclin D1) [nM],IC50 (OVCAR3 p-RB) [nM],IC50 (CDK2/Cyclin E2) [nM],Compound
100 to 1000,100 to 1000,≤ 100,"CCS(=O)(=O)N1CCC(Nc2ncc(C(F)(F)F)c(-c3cnc(C)s3)n2)CC1 [Example 45, N-(1-(Ethylsulfonyl)piperidin-4-yl)-4-(2-methylthiazol-5-yl)-5-(trifluoromethyl)pyrimidin-2-amine]"
100 to 1000,≤ 100,≤ 100,"C[C@@H]1CN(S(=O)(=O)c2cn(C)cn2)CC[C@@H]1Nc1ncc(C(F)(F)F)c(-c2cnc(C(C)(C)O)s2)n1 [Example 96, 2-(5-(2-(((3R,4S)-3-methyl-1-((1-methyl-1H-imidazol-4-yl)sulfonyl)piperidin-4-yl)amino)-5-(trifluoromethyl)pyrimidin-4-yl)thiazol-2-yl)propan-2-ol]"
